Activity calls are given as the source filed them. No cut-off for these calls is given here.
Legend:
[1] = biological target: Stimulator of interferon genes protein (Homo sapiens) (UniProt Q86WV6); experiment: Agonist activity at STING in human THP-1 cells assessed as IRF3 phosphorylation at 20 uM measured for 4 hrs in presence of H-151 by Western blotting analysis; format: cell-based
MC-38 [2] = experiment: Antitumor activity against mouse MC38 cells allografted in C57/BL6 mouse assessed as increase in CD8+ T cell numbers in tumor tissues at 300 ug, IT administered every 2 days by immunohistochemical staining based analysis; format: functional; conditions: dose 300.0 µg
CT26 [3] = experiment: Antitumor activity against mouse CT26 cells […] mouse assessed as augmentation of CD8+ T cells in spleen at 10 mg/kg, ip administered every 2 days (reference value: 6.99%); format: functional
[4] = biological target: T1, Stimulator of interferon genes protein (Mus musculus) (UniProt Q3TBT3); experiment: Agonist activity at STING in MEF cells assessed as increase in STING oligomerization by Western blotting analysis; format: cell-based; conditions: filed as agonist
T1 sequence (whole entry): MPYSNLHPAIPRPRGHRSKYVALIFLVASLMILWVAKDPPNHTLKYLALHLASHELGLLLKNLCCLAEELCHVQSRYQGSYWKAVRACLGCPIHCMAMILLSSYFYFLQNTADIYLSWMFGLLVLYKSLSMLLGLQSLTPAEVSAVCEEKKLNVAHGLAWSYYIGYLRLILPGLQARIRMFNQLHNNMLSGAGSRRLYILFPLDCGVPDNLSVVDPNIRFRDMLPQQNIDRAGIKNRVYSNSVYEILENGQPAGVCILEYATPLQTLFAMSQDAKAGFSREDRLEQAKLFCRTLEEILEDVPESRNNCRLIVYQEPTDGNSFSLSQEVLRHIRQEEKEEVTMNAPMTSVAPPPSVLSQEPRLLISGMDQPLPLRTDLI

[5] = biological target: Stimulator of interferon genes protein (Homo sapiens) (UniProt Q86WV6); experiment: Agonist activity at STING in human THP-1 cells assessed as TBK1 phosphorylation at 20 uM measured for 4 hrs in presence of H-151 by Western blotting analysis; format: cell-based
[6] = biological target: Stimulator of interferon genes protein (Homo sapiens) (UniProt Q86WV6); experiment: Agonist activity at STING in human THP-1 cells assessed as upregulation of IL-6/JAK/STAT3 signaling pathway by GSEA; format: cell-based; conditions: filed as agonist
CT26 [7] = experiment: Antitumor activity against mouse CT26 cells […] mouse assessed as augmentation of CD8+ T cells in spleen at 20 mg/kg, ip administered every 2 days (reference value: 6.99%); format: functional; conditions: time 2 day
CT26 [8] = experiment: Antitumor activity against mouse CT26 cells […] mouse assessed as augmentation of CD45+ cells in spleen at 20 mg/kg, ip administered every 2 days (reference value: 35.1%); format: functional; conditions: time 2 day
MC-38 [9] = experiment: Antitumor activity against mouse MC38 cells allografted in C57/BL6 mouse assessed as increase in CD8+ T cells in tumor tissue at 300 ug, IT administered every 2 days by flow cytometry analysis (reference value: 4.10%); format: functional; conditions: dose 300 µg
[10] = biological target: Stimulator of interferon genes protein (Homo sapiens) (UniProt Q86WV6); experiment: Agonist activity at STING in human THP-1 cells assessed as increase in TBK1 phosphorylation incubated for 4 hrs by Western blotting analysis; format: cell-based; conditions: filed as agonist, dose 5-40 µM
[11] = biological target: Stimulator of interferon genes protein (Homo sapiens) (UniProt Q86WV6); experiment: Agonist activity at STING in human THP-1 cells assessed as upregulation of DNA replication related genes by gene ontology analysis; format: cell-based; conditions: filed as agonist
Human alphaherpesvirus 1 [12] = experiment: Antiviral activity against HSV-1-GFP infected in human THP-1 cells assessed as reduction in proportion of infected cells pre-infected […] for 24 hrs followed by compound addition and measured after 6 hrs by flow cytometry analysis; format: functional, organism-based; conditions: dose 10-30 µM
MC-38 [13] = experiment: Induction of apoptosis in mouse MC38 cells allografted in C57/BL6 mouse a at 300 ug, IT administered every 2 days; format: functional, cell-based; conditions: dose 300.0 µg
[14] = biological target: Stimulator of interferon genes protein (Homo sapiens) (UniProt Q86WV6); experiment: Agonist activity at STING in human THP-1 cells assessed as upregulation of type-1 interferon signaling pathway by gene ontology analysis; format: cell-based; conditions: filed as agonist
[15] = biological target: Stimulator of interferon genes protein (Homo sapiens) (UniProt Q86WV6); experiment: Agonist activity at STING in human THP-1 cells assessed as increase in LC3 protein level at 20 uM measured for 4 hrs by Western blotting analysis; format: cell-based; conditions: filed as agonist
CT26 [16] = experiment: Antitumor activity against mouse CT26 cells allografted in […] mouse assessed as augmentation of CD45+ cells in spleen at 5 mg/kg, ip administered every 2 days (reference value: 35.1%); format: functional
[17] = biological target: Stimulator of interferon genes protein (Homo sapiens) (UniProt Q86WV6); experiment: Agonist activity at STING in human THP-1 cells assessed as increase in IL6 mRNA level at 20 uM measured for 4 hrs by qPCR analysis; format: cell-based; conditions: filed as agonist
Human alphaherpesvirus 1 [18] = experiment: Antiviral activity against HSV-1-GFP infected in mouse MC38 cells assessed as reduction in viral infection by fluorescent microscopy analysis; format: functional, organism-based
[19] = biological target: Stimulator of interferon genes protein (Homo sapiens) (UniProt Q86WV6); experiment: Agonist activity at STING in human THP-1 cells assessed as upregulation of IFNgamma related genes by GSEA; format: cell-based; conditions: filed as agonist
Human alphaherpesvirus 1 [20] = experiment: Antiviral activity against HSV-1-GFP infected in human HeLa cells assessed as reduction in viral infection by fluorescent microscopy analysis; format: functional, organism-based
[21] = biological target: T1, Stimulator of interferon genes protein (Mus musculus); experiment: Agonist activity at STING in MEF cells assessed as STING translocation to golgi apparatus by measuring increase in red fluorescence incubated for 1 hr by laser scanning confocal microscope analysis; format: cell-based; conditions: filed as agonist
[22] = biological target: Stimulator of interferon genes protein (Homo sapiens) (UniProt Q86WV6); experiment: Binding affinity to STING CTD (unknown origin) at 3.125 to 200 uM by surface plasmon resonance analysis; conditions: filed as agonist, dose 3.125-200 µM
[23] = biological target: Stimulator of interferon genes protein (Homo sapiens) (UniProt Q86WV6); experiment: Agonist activity at STING in human THP-1 cells assessed as increase in ISG15 mRNA level at 20 uM measured for 4 hrs by qPCR analysis; format: cell-based; conditions: filed as agonist
[24] = biological target: Stimulator of interferon genes protein (Homo sapiens) (UniProt Q86WV6); experiment: Agonist activity at STING in human THP-1 cells assessed as increase in IRF3 phosphorylation at 20 uM measured for 4 hrs by Western blotting analysis; format: cell-based; conditions: filed as agonist
CT26 [25] = experiment: Antitumor activity against mouse CT26 cells […] mouse assessed as augmentation of CD3+ T cells in spleen at 20 mg/kg, ip administered every 2 days (reference value: 13.9%); format: functional
[26] = biological target: Stimulator of interferon genes protein (Homo sapiens) (UniProt Q86WV6); experiment: Agonist activity at STING in human THP-1 cells assessed as upregulation of innate immune response related genes by gene ontology analysis; format: cell-based; conditions: filed as agonist
MC-38 [27] = experiment: Antitumor activity against mouse MC38 cells allografted in C57/BL6 mouse assessed as increase in IL-6 level in serum at 300 ug, IT administered every 2 days by ELISA; format: functional, cell-based; conditions: dose 300.0 µg
THP1-Dual KO-STING = experiment: Upregulation of interferon production in human THP1-Dual KO-STING cells by dual-luciferase reporter assay; format: functional, cell-based
[28] = biological target: Stimulator of interferon genes protein (Homo sapiens) (UniProt Q86WV6); experiment: Agonist activity at STING in human THP-1 cells assessed as increase in CXCL10 mRNA level at 20 uM measured for 4 hrs by qPCR analysis; format: cell-based; conditions: filed as agonist
[29] = biological target: T1, Stimulator of interferon genes protein (Mus musculus); experiment: Agonist activity at STING in MEF cells assessed as STING translocation by measuring aggregation of green fluorescence incubated for 1 hr by laser scanning confocal microscope analysis; format: cell-based; conditions: filed as agonist
THP-1 = experiment: Upregulation of TBK1 phosphorylation in STING-knockout human THP-1 cells at 20 uM measured for 4 hrs by Western blotting analysis; format: functional, cell-based

Chain of Stimulator of interferon genes protein (Homo sapiens) (Q86WV6 whole entry): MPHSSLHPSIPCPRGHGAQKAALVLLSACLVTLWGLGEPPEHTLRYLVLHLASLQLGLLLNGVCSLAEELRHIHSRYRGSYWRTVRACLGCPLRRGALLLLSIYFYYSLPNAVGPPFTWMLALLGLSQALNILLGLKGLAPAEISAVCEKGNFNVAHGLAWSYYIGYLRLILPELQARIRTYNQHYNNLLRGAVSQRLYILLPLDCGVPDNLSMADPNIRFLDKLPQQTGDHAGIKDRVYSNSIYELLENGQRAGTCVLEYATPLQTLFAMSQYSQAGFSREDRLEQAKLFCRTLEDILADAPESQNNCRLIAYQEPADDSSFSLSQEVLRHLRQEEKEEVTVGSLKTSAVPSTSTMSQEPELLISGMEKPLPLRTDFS

In the case of `CC(NCCC(c1ccccc1)c1ccccc1)c1ccccc1` (stereo unspecified) [FENDILINE], the Activity [1] is reported as “inactive”, the Activity (MC-38 [2]) is reported as “Active” and the Activity (CT26 [3]) is reported as 15.1%. For the same compound, the Activity [4] was “Active”, the Activity [5] was “inactive” and the Activity [6] was “Active”. For the same compound, the Activity (CT26 [7]) was 21%, the Activity (CT26 [8]) was 76.1% and the Activity (MC-38 [9]) was 14.7%. The Activity [10] was “Dose-Dependent Effect”, the Activity [11] was “Active” and the Activity (Human alphaherpesvirus 1 [12]) was “Dose-Dependent Effect”. The Activity (MC-38 [13]) was “inactive”, the Activity [14] was “Active” and the Activity [15] was “Active”. For the same compound, the Activity (CT26 [16]) was 42.5%, the Activity [17] was “Active” and the Activity (Human alphaherpesvirus 1 [18]) was “Active”. For the same compound, the Activity [19] was “Active”, the Activity (Human alphaherpesvirus 1 [20]) was “Active” and the Activity [21] was “Active”. The Activity [22] was “Active”, the Activity [23] was “Active” and the Activity [24] was “Active”. The Activity (CT26 [25]) was 41.4%, the Activity [26] was “Active” and the Activity (MC-38 [27]) was “Active”. For the same compound, the Activity (THP1-Dual KO-STING) was “inactive”, the Activity [28] was “Active” and the Activity [29] was “Active”. For the same compound, the Activity (THP-1) was “inactive”.

— ChEMBL document CHEMBL5518165, “M335, a novel small-molecule STING agonist activates the immune response and exerts antitumor effects” (Eur J Med Chem, 2024)
